Source: article PMC7915765, “Biochemical Characterization, Specificity and Inhibition Studies of HTLV-1, HTLV-2, and HTLV-3 Proteases” (Life, 2021)
Numbering of substitutions follows the chain as printed. “Also recorded” adds a separate entry of the source. Read-outs that look alike come from different tables or passages of the source.

Legend:
HTLV-1 PR [1] = assay: Protease activity assay with oligopeptide substrates (RP-HPLC), HTLV-1 PR; type: biochemical, human T-cell leukemia virus type 1; conditions: substrate 0.05–1.10 mM, 2× buffer 0.5 M K3PO4, 4 M NaCl, 10 v/v% glycerol, 10 mM DTT, pH 5.6, 37 °C, 0.5–4 h
Excerpt: (§1) The oligopeptides representing the naturally occurring matrix/capsid (MA/CA), capsid/nucleocapsid (CA/NC), trans-frame protein/protease (TF1/PR), and PR/p1 cleavage sites of HTLV-1, -2, and -3 PRs were used as substrates. The oligopeptide substrates representing the natural sequences of HTLV PRs were ordered from BioBasic, while the oligopeptide substrates representing naturally occurring cleavage sites of various viruses, or the wild-type, the shortened, and the P4, P3, P2, P1, or P1′ variants of HTLV-1 MA/CA cleavage site (KTKVL*VVQPK) were in-house stocks. All peptides were dissolved in distilled water.
(§2) For kinetic measurements, we applied 10 µL 2× incubation buffer (0.5 M K3PO4, 4 M NaCl, 10 v/v% glycerol, 10 mM DTT, pH 5.6), 5 µL of HTLV-1, HTLV-2, or HTLV-3 PR (final concentration of the active enzyme was in 0.1–34.4 nM), and 0.5–5 µL oligopeptide substrate representing HTLV PR natural cleavage sites (0.05–1.10 mM final concentration). The final volume of the reaction mixture was set to 20 µL with distilled water if it was necessary. The reactions were initiated by the addition of the enzyme, were incubated at 37 °C for 0.5–4 h, and stopped by the addition of 180 µL 1 v/v% TFA. For substrates representing natural cleavage sites of retroviruses other than HTLV-1, -2, and -3 PRs (HIV-1, equine infectious anemia virus (EIAV), Rous sarcoma virus (RSV), mouse mammary tumor virus (MMTV), Mason-Pfizer monkey virus (MPMV), and murine leukemia virus (MuLV) and BLV) in a longer incubation time (24 h) was also applied. The cleavage products were separated by using a Nova-Pack C18 RP-HPLC column (3.9 mm × 150 mm, Waters Associates Inc, Milford, MA, USA) on HPLC (Merck-Hitachi LaChrom). Water-acetonitrile gradient (0–100%) was used for separation in the presence of 0.05% TFA at 2 mL/min flow rate. The kinetic parameters were determined by fitting the data—obtained at less than 20% substrate hydrolysis—to the Michaelis–Menten equation. The Gaussian equation was used to determine pH optimum and exponential growth equation for determination of optimal NaCl concentration, while linear regression was applied to plot the dependence of enzyme activity on temperature. Prism8 software (GraphPad Software Inc., San Diego, CA, USA) was used for evaluation. The kcat/KM catalytic constants were calculated based on the active enzyme concentration, which was determined by active site titration using the method described previously.

HTLV-3 PR [2] = target: T1, HTLV-3 PR (Human T-cell leukemia virus 3, UniProt Q4U0X6); assay: Protease activity assay with oligopeptide substrates (RP-HPLC), HTLV-3 PR; type: biochemical, human T-cell leukemia virus type 3; design: made in house; host or cells: E. coli BL21(DE3), pET11a; conditions: pH 5.6, 37 °C
Excerpt: as §1, §2

HTLV-2 PR [3] = target: T2, HTLV-2 PR (Human T-cell leukemia virus 2, UniProt P03363); assay: Protease activity assay with oligopeptide substrates (RP-HPLC), HTLV-2 PR; type: biochemical, human T-cell leukemia virus type 2; design: made in house; host or cells: E. coli BL21(DE3); conditions: pH 5.6, 37 °C
Excerpt: as §1, §2

HTLV-2 PR [4] = target: T2, HTLV-2 PR; assay: Inhibition study with HIV-1 PIs, HTLV-2 PR; type: biochemical, human T-cell leukemia virus type 2; design: made in house; host or cells: E. coli BL21(DE3); conditions: inhibitor 1 µM final; for loss of activity: substrate HTLV-2 MA/CA 0.40–0.43 mM, DMSO control = 100%, n = 2
Protocol: The inhibitors were dissolved in DMSO.

HTLV-3 PR [5] = target: T1, HTLV-3 PR; assay: Inhibition study with HIV-1 PIs, HTLV-3 PR; type: biochemical; design: made in house; host or cells: E. coli BL21(DE3), pET11a; conditions: inhibitor 1 µM final; for loss of activity: substrate HTLV-3 MA/CA 0.40–0.43 mM, DMSO control = 100%, n = 2
Protocol: (§3) The IB-268 (KTKVL-r-VVQPK) and IB-269 (APQVL-r-PVMHP) reduced peptide bond (-r-)-containing inhibitors, which were synthesized by Dr. Ivo Blaha (Ferring Leciva, Prague, Czech Republic).
(§4) The reaction mixtures were prepared to contain 4.8 µL of substrate (in 0.40–0.43 mM final concentration), 0.2 µL of inhibitor, 5 µL of the enzyme, and 10 µL of a 2× incubation buffer. The substrates representing HTLV-2 and HTLV-3 MA/CA cleavage sites were used for HTLV-2 and HTLV-3 PRs, respectively. In the case of HIV-1 PIs, we applied 100 µM inhibitor stocks, while 0.5–100 µM stocks of IB-268 and IB-269 were used for screening. The inhibitors were dissolved in DMSO. Therefore, 0.2 µL of DMSO was added to the control samples.

HTLV-1 PR [6] = assay: Inhibition study with HIV-1 PIs, HTLV-1 PR; type: biochemical, human T-cell leukemia virus type 1; conditions: inhibitor 1 µM final
Protocol: as §3, §4

HIV-1 PR = conditions: cleavage sites of viruses other than HTLV, retrieved from the literature, ref [28]; cited from earlier work
Excerpt: (§5) Table 3 Catalytic efficiencies of HTLV PRs on different substrates representing natural cleavage site sequences of viruses other than HTLV. Cleavage sites are labelled by an asterisk within the sequences. Abbreviations: MA (matrix), CA (capsid), NC (nucleocapsid), TF (transframe), RT (reverse-transcriptase), and IN (integrase). | column: kcat/KM (mM^−1 s^−1) / HIV-1 PR ^1

HTLV-1 PR [7] = conditions: cleavage sites of viruses other than HTLV, retrieved from the literature, ref [28]; cited from earlier work
Excerpt: as §5, with “Table 2 Catalytic efficiencies of HTLV PRs on different substrates representing natural cleavage site sequences. Cleavage sites are labelled by asterisks within the sequences. Abbreviations: MA (matrix), CA (capsid), NC (nucleocapsid), and TF1 (trans-frame 1). | column: kcat/KM [mM^−1 s^−1] / HTLV-1 PR || Table” for “Table”, “column: Substrate;” for “column:”, “HTLV-1” for “HIV-1”

HTLV-1 PR [8] = conditions: ref [28], cited from earlier work; for activity of mutant (in words): HTLV-1 PR mutants, L57G with HTLV-1 CA/NC substrate (KTKVL*VVQPK); for self-processing: HTLV-1 PR, designed and characterized previously
Excerpt: Table 5 Effects of protease mutations on autoproteolytic activity of HTLV PRs. | column: Self-Processing || We prepared mutant HTLV-2 and HTLV-3 PRs, which contained mutations that were introduced previously to HTLV-1 PR to study its self-processing capability. The rationale behind the former mutation design was to prepare mutant HTLV-1 PRs that contain HIV-1-like residues in the flap region (57th and 59th) or at the active site (37th and 67th). The herein studied enzymes also contained the same mutations in the corresponding positions (Figure 10). All modified residue constitutes a part of substrate binding sites (Table 4).

[9] = natural HTLV cleavage sites, substrate 0.05–1.10 mM, 2× buffer 0.5 M K3PO4, 4 M NaCl, 10 v/v% glycerol, 10 mM DTT, 0.5–4 h
[10] = cleavage sites of viruses other than HTLV, longer incubation time (24 h) also applied

T1 sequence (Q4U0X6 431-553): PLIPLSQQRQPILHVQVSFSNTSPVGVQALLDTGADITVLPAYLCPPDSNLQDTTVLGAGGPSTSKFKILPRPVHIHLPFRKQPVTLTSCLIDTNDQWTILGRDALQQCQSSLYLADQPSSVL
T2 sequence (P03363 447-571): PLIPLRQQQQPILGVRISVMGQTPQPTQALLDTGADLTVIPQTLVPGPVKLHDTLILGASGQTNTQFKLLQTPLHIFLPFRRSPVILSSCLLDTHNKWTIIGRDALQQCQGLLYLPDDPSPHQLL

PHQLL*PIATP [HTLV-2 PR/P1, oligopeptide substrate PHQLL*PIATP]
kcat/KM (HTLV-1 PR [1]): 10700 ± 4800 M⁻¹ s⁻¹ | kcat/KM (HTLV-3 PR [2]; [9]): 7500 ± 2700 M⁻¹ s⁻¹ | kcat/KM (HTLV-2 PR [3]; [9]): 92200 ± 41400 M⁻¹ s⁻¹

O=C1N(Cc2ccc(CO)cc2)[C@H](Cc2ccccc2)[C@H](O)[C@@H](O)[C@@H](Cc2ccccc2)N1Cc1ccc(CO)cc1 [DMP-323]
loss of activity (HTLV-2 PR [4]): < 50% | loss of activity (HTLV-3 PR [5]): < 50%

SPRTIL*PLIP [HTLV-2 TF1/PR, oligopeptide substrate SPRTIL*PLIP]
kcat/KM (HTLV-1 PR [1]): 4900 ± 1100 M⁻¹ s⁻¹ | kcat/KM (HTLV-3 PR [2]; [9]): 5000 ± 1100 M⁻¹ s⁻¹ | kcat/KM (HTLV-2 PR [3]; [9]): 132500 ± 42500 M⁻¹ s⁻¹

CC(C)(C)NC(=O)[C@@H]1C[C@@H]2CCCC[C@@H]2CN1C[C@@H](O)[C@H](Cc1ccccc1)NC(=O)[C@H](CC(N)=O)NC(=O)c1ccc2ccccc2n1 [saquinavir]
loss of activity (HTLV-2 PR [4]): < 50% | loss of activity (HTLV-3 PR [5]): < 50%

CC(C)CN(C[C@@H](O)[C@H](Cc1ccccc1)NC(=O)O[C@H]1CO[C@H]2OCC[C@H]21)S(=O)(=O)c1ccc(N)cc1 [darunavir]
inhibitory effect (in words) (HTLV-2 PR [4]): highest inhibition | loss of activity (HTLV-2 PR [4]): < 50% | inhibitory effect (in words) (HTLV-1 PR [6]): highest inhibition | inhibitory effect (in words) (HTLV-3 PR [5]): highest inhibition | loss of activity (HTLV-3 PR [5]): < 50%

PRTIL*PVIPL [HTLV-3 TF1/PR, oligopeptide substrate PRTIL*PVIPL]
kcat/KM (HTLV-1 PR [1]): 109800 ± 29300 M⁻¹ s⁻¹

KNKIL*MIQPK [HTLV-3 CA/NC, oligopeptide substrate KNKIL*MIQPK]
kcat/KM (HTLV-1 PR [1]): not cleaved

ASQCL*PILHP [HTLV-3 MA/CA, oligopeptide substrate ASQCL*PILHP]
kcat/KM (HTLV-1 PR [1]): 40900 ± 10400 M⁻¹ s⁻¹ | kcat/KM (HTLV-3 PR [2]; [9]): 19700 ± 4400 M⁻¹ s⁻¹ | kcat/KM (HTLV-2 PR [3]; [9]): 2600 ± 400 M⁻¹ s⁻¹

PSKVL*PVLAP [HTLV-3 PR/P1, oligopeptide substrate PSKVL*PVLAP]
kcat/KM (HTLV-1 PR [1]): 7000 ± 2600 M⁻¹ s⁻¹ | kcat/KM (HTLV-3 PR [2]; [9]): 22600 ± 5800 M⁻¹ s⁻¹ | kcat/KM (HTLV-2 PR [3]; [9]): 2100 ± 300 M⁻¹ s⁻¹

TTQCF*PILHP [HTLV-2 MA/CA, oligopeptide substrate TTQCF*PILHP]
kcat/KM (HTLV-1 PR [1]): 14400 ± 4300 M⁻¹ s⁻¹ | kcat/KM (HTLV-3 PR [2]; [9]): 37800 ± 20200 M⁻¹ s⁻¹ | kcat/KM (HTLV-2 PR [3]; [9]): 4300 ± 500 M⁻¹ s⁻¹

COC(=O)N[C@H](C(=O)N[C@@H](Cc1ccccc1)[C@@H](O)CN(Cc1ccc(-c2ccccn2)cc1)NC(=O)[C@@H](NC(=O)OC)C(C)(C)C)C(C)(C)C [atazanavir]
loss of activity (HTLV-2 PR [4]): < 50% | loss of activity (HTLV-3 PR [5]): < 50%

PPYVG*SGLYP [RSV P2B/P10, oligopeptide substrate PPYVG*SGLYP]
kcat/KM (HTLV-3 PR [2]; [10]): not cleaved | kcat/KM (HTLV-2 PR [3]; [10]): not cleaved | kcat/KM (HIV-1 PR): not cleaved | kcat/KM (HTLV-1 PR [7]): not cleaved

LTFTF*PVVFMRR [MMTV N/CA, oligopeptide substrate LTFTF*PVVFMRR]
kcat/KM (HTLV-3 PR [2]; [10]): not cleaved | kcat/KM (HTLV-2 PR [3]; [10]): not cleaved | kcat/KM (HIV-1 PR): 900 M⁻¹ s⁻¹ | kcat/KM (HTLV-1 PR [7]): 10 M⁻¹ s⁻¹

TATIM*MQRGN [HIV-1 P2/NC, oligopeptide substrate TATIM*MQRGN]
kcat/KM (HTLV-3 PR [2]; [10]): not cleaved | kcat/KM (HTLV-2 PR [3]; [10]): not cleaved | kcat/KM (HIV-1 PR): 74000 M⁻¹ s⁻¹ | kcat/KM (HTLV-1 PR [7]): not cleaved

B1: HTLV-1 L57G (protein, UniProt P10274 450-574, looked up, variant L57G)
Protease: PVIPLDPARRPVIKAQVDTQTSHPKTIEALLDTGADMTVLPIALFSSNTPLKNTSVGGAGGQTQDHFKLTSLPVLIRLPFRTTPIVLTSCLVDTKNNWAIIGRDALQQCQGVLYLPEAKRPPVIL
modifications: Protease
activity of mutant (in words) (HTLV-1 PR [8]): inefficient enzyme; also recorded: did not hydrolyze the CA/NC cleavage site peptide

B2: HTLV-1 wild-type: wild-type HTLV-1 PR, self-processing studied previously (protein, UniProt P10274 450-574, looked up)
Protease: B1 Protease with G57L
modifications: Protease
notes: wild-type HTLV-1 PR, self-processing studied previously
self-processing (HTLV-1 PR [8]): yes

B3: HTLV-1 A59I (protein, UniProt P10274 450-574, looked up, variant A59I)
Protease: B1 Protease with G57L, A59I
modifications: Protease
activity of mutant (in words) (HTLV-1 PR [8]): undetectable activity

B4: HTLV-1 M37D (protein, UniProt P10274 450-574, looked up, variant M37D)
Protease: B1 Protease with M37D, G57L
modifications: Protease
self-processing (HTLV-1 PR [8]): no

B5: HTLV-1 F67Q (protein, UniProt P10274 450-574, looked up, variant F67Q)
Protease: B1 Protease with G57L, F67Q
modifications: Protease
activity of mutant (in words) (HTLV-1 PR [8]): not tolerated | self-processing (HTLV-1 PR [8]): no
